# According to ChEMBL document CHEMBL2203268, “Resveratrol as a kcat type inhibitor for tyrosinase: potentiated melanogenesis inhibitor” (Bioorg Med Chem, 2012):
# Active and inactive are the calls of the source. The rule behind the calls is not given here.
# Legend:
# B16-F10 [1] = assay: Cytotoxicity against mouse B16F10 cells assessed as suppression of cell viability at 12.5 to 200 uM after 72 hrs; type: cell-based; conditions: b16-f10, 72 h
# B16-F10 [2] = assay: Antimelanogenic activity in mouse assessed as cellular melanin content B16F10 cells after 72 hrs by spectrophotometric analysis; type: functional, cell-based
# B16-F10 [3] = assay: Cytotoxicity against mouse B16F10 cells assessed as suppression of cell viability at 400 uM after 72 hrs; type: cell-based; conditions: b16-f10, 72 h
# [4] = molecular target: T1, Tyrosinase (Agaricus bisporus) (UniProt O42713); assay: Inhibition of mushroom tyrosinase-mediated L-tyrosine oxidation at 100 uM after 60 mins by HPLC analysis
# T1 sequence (whole entry): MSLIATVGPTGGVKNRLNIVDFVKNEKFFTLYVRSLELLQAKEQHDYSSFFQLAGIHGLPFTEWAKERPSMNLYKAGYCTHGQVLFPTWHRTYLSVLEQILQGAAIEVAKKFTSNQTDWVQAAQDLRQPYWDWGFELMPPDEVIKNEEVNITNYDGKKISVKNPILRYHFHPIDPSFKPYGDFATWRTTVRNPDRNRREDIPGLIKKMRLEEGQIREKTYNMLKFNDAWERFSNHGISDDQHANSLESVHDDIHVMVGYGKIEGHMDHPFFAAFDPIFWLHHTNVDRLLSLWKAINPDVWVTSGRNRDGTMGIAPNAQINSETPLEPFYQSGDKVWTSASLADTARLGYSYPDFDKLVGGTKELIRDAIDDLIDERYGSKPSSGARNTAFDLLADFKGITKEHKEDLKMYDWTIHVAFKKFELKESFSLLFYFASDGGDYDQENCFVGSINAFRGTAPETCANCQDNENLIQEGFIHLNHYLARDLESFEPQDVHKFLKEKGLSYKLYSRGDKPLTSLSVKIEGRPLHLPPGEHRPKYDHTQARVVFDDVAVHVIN
# [5] = molecular target: T1, Tyrosinase (Agaricus bisporus); assay: Inhibition of mushroom tyrosinase assessed as L-DOPA oxidation at 100 uM incubated 30 mins prior to substrate addition measured after 60 mins by UV-vis spectrophotometric analysis
# [6] = molecular target: T1, Tyrosinase (Agaricus bisporus); assay: Activation of mushroom tyrosinase assessed as dopachrome formation after 60 mins by UV-vis spectrophotometric analysis
# [7] = molecular target: T1, Tyrosinase (Agaricus bisporus); assay: Inhibition of mushroom tyrosinase-mediated oxygen consumption at 100 uM using L-tyrosine substrate incubated 30 mins prior to substrate addition measured after 60 mins
# [8] = molecular target: T1, Tyrosinase (Agaricus bisporus); assay: Activation of mushroom tyrosinase assessed as oxygen consumption using L-tyrosine substrate after 60 mins
# [9] = Drug metabolism assessed as oxidation of the compound at 100 uM after 10 mins by UV-vis spectrophotometric analysis in the presence of tyrosinase; type: physicochemical
# [10] = Drug metabolism assessed as oxidation of the compound at 100 uM by HPLC analysis in the presence of tyrosinase; type: physicochemical; conditions: TDE = time-dependent effect
# [11] = molecular target: T1, Tyrosinase (Agaricus bisporus); assay: Inhibition of mushroom tyrosinase-mediated oxygen consumption using L-tyrosine substrate after 60 mins
# [12] = molecular target: T1, Tyrosinase (Agaricus bisporus); assay: Activation of mushroom tyrosinase assessed as L-DOPA oxidation at 100 uM after 30 mins by UV-vis spectrophotometric analysis
# [13] = molecular target: T1, Tyrosinase (Agaricus bisporus); assay: Inhibition of mushroom tyrosinase-mediated dopachrome formation after 60 mins by UV-vis spectrophotometric analysis
# [14] = molecular target: T1, Tyrosinase (Agaricus bisporus); assay: Inhibition of mushroom tyrosinase-mediated L-DOPA oxidation assessed as decrease in dopachrome formation at 100 uM incubated 30 mins prior to substrate addition measured after 60 mins by UV-vis spectrophotometric analysis
# B16-F10 [15] = assay: Cytotoxicity against mouse B16F10 cells assessed as suppression of cell viability at 200 uM after 72 hrs; type: cell-based; conditions: b16-f10, 72 h
# [16] = molecular target: T1, Tyrosinase (Agaricus bisporus); assay: Inhibition of mushroom tyrosinase-mediated oxygen consumption at 100 uM using L-DOPA substrate incubated 30 mins prior to substrate addition measured after 60 mins
# [17] = molecular target: T1, Tyrosinase (Agaricus bisporus); assay: Inhibition of mushroom tyrosinase assessed as L-DOPA oxidation HPLC analysis
# [18] = molecular target: T1, Tyrosinase (Agaricus bisporus); assay: Inhibition of mushroom tyrosinase-mediated L-DOPA oxidation at 100 uM after 30 mins by UV-vis spectrophotometric analysis
# [19] = molecular target: T1, Tyrosinase (Agaricus bisporus); assay: Inhibition of mushroom tyrosinase assessed as L-tyrosine oxidation at 100 uM incubated 30 mins prior to substrate addition measured after 60 mins by UV-vis spectrophotometric analysis
# [20] = Drug metabolism assessed as oxidation of the compound at 100 uM after 30 mins by HPLC analysis in the presence of tyrosinase; type: physicochemical; conditions: 0.5 h
# tyrosinase = assay: Drug metabolism assessed as oxidation of the compound at 100 uM after 60 mins by HPLC analysis in the presence of tyrosinase; type: physicochemical; conditions: read-out: Drug metabolism
# [21] = molecular target: T1, Tyrosinase (Agaricus bisporus); assay: Inhibition of mushroom tyrosinase-mediated L-tyrosine oxidation after 60 mins by HPLC analysis
# [22] = molecular target: T1, Tyrosinase (Agaricus bisporus); assay: Inhibition of mushroom tyrosinase-mediated L-DOPA oxidation assessed as recovery of enzymatic activity at 100 uM preincubated for 30 mins by HPLC analysis in the presence of 200 uM of L-cysteine
# B16-F10 [23] = assay: Antimelanogenic activity in mouse assessed as cellular melanin content B16F10 cells at 200 uM after 72 hrs spectrophotometric analysis; type: functional, cell-based
# [24] = molecular target: T1, Tyrosinase (Agaricus bisporus); assay: Inhibition of mushroom tyrosinase-mediated L-DOPA oxidation assessed as decrease in dopachrome formation at 100 uM preincubated for 30 mins by HPLC analysis
# [25] = molecular target: T1, Tyrosinase (Agaricus bisporus); assay: Inhibition of mushroom tyrosinase-mediated L-tyrosine oxidation assessed as decrease in dopachrome formation at 100 uM after 60 mins by UV-vis spectrophotometric analysis
# [26] = molecular target: T1, Tyrosinase (Agaricus bisporus); assay: Inhibition of mushroom tyrosinase-mediated oxygen consumption using L-DOPA substrate at 100 uM after 30 mins
# B16-F10 [27] = assay: Cytotoxicity against mouse B16F10 cells assessed as suppression of cell viability after 72 hrs; type: cell-based
compound,measurement,setting,value
Oc1cc(O)cc(/C=C\c2ccccc2)c1,Activity,B16-F10 [1],Non-toxic
same,Activity,B16-F10 [2],inactive
Oc1cc(O)cc(CCc2ccccc2)c1 [DIHYDROPINOSYLVIN],Activity,B16-F10 [1],Non-toxic
same,Activity,B16-F10 [2],inactive
Oc1cc(O)cc(/C=C/c2ccccc2)c1 [PINOSYLVIN],Activity,B16-F10 [1],Non-toxic
same,Activity,B16-F10 [3],Toxic
Oc1ccc(/C=C/c2cc(O)cc(O)c2)cc1 [RESVERATROL],inhibition,[4],Active
same,inhibition,[5],90%
same,Activity,[6],Dose-dependent effect
same,inhibition,[7],Active
same,Activity,[8],Dose-dependent effect
same,Activity,B16-F10 [1],Non-toxic
same,Drug metabolism,[9],Active
same,Drug metabolism,[10],tde
same,inhibition,[11],inactive
same,Activity,[12],inactive
same,inhibition,[13],inactive
same,inhibition,[14],Active
same,Activity,B16-F10 [15],10%
same,inhibition,[16],Active
same,inhibition,[17],Active
same,inhibition,[18],inactive
same,inhibition,[19],Active
same,Activity,B16-F10 [2],Dose-dependent effect
same,Drug metabolism,[20],Active
same,"metabolised at 1 h, 100 µM",tyrosinase,90%
same,inhibition,[21],Dose-dependent effect
same,inhibition,[22],20%
same,Activity,B16-F10 [23],Active
same,inhibition,[24],10%
same,inhibition,[25],Active
same,inhibition,[26],inactive
same,IC50,"B16-F10 [27]; Mus musculus, B16-F10, 72 h",> 200 µM
same,Activity,"B16-F10 [27]; mouse, b16-f10, 72 h",Dose-dependent effect
